Measurements as given in US11607418B2, “Methods of treating SARS-CoV-2 infections” (Tyme, Inc., priority 2020, dated 2023).
In brackets after ≈: the same amount, converted by molar mass.

Legend:
[1] = test system: SARS-CoV-2 (USA-WA1/2020 strain); assay: SARS-CoV-2 neutralization assay, cytopathic effects (CPE) in Vero E6 cells; type: cell-based; conditions: for Day 2 CPE / Day 4 CPE: 1.25 mg/mL, five replicate wells
[2] = test system: SARS-CoV-2 infection / COVID-19; assay: TUDCA capsules taken by persons with or exposed to COVID-19; type: in vivo; conditions: 500 mg capsule twice per day
[3] = pre-incubation with virus 60 minutes
[4] = simultaneous addition of drug and virus, ~100 TCID50/well

Compound	Day 2 CPE [1, 3]	Day 2 CPE [1, 4]	Day 4 CPE [1, 4]	EC50 ([1]; Severe acute respiratory syndrome coronavirus 2, Vero C1008, calculated by the Quest Graph EC50 Calculator, inhibition of SARS-CoV-2 CPE in Vero E6 cells)	Health outcome of member who tested positive for SARS-CoV-2 with COVID-19 symptoms ([2]; Example 2, oral, one rescue squad member)	COVID-19 symptoms despite repeated exposure to COVID-19 patients ([2]; Example 2, twelve rescue squad members, at least 3 months)	Health outcome of subject presenting with COVID-19 symptoms ([2]; Example 3, one subject)
C[C@H](CCC(=O)NCCS(=O)(=O)[O-])[C@H]1CC[C@H]2[C@@H]3[C@@H](O)C[C@@H]4C[C@H](O)CC[C@]4(C)[C@H]3CC[C@]12C.[Na+] [Sodium TUDCA]	no CPE	no CPE	no CPE	–	–	–	–
CC(CCC(=O)NCCS(=O)(=O)O)C1CCC2C3C(O)CC4CC(O)CCC4(C)C3CCC12C (stereo not shown) [TUDCA acid, tauroursodeoxycholic acid]	no CPE	no CPE	no CPE	980 µg/mL (≈ 1960 µM)	–	–	–
CC(CCC(=O)NCCS(=O)(=O)O)C1CCC2C3C(O)CC4CC(O)CCC4(C)C3CCC12C (stereo not shown) [TUDCA, tauroursodeoxycholic acid]	–	–	–	–	health returned to normal	None of the other twelve members have presented with COVID-19 symptoms	health returned to normal
